Test results published in ChEMBL document CHEMBL1201862, “PubChem BioAssay data set” (2004).
Active and inactive are the calls of the source.

What was measured:
[1] = reduction of Shn3 3'UTR-driven luciferase in osteoblasts – cell-based, Clone20 osteoblasts, firefly luciferase, cherry-picked, dose response (AID 624132); type: functional;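 further: firefly luciferase luminescence from reporter carrying the Shn3 3'UTR in osteoblasts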
[2] = Trypanosoma cruzi growth suppression in host cells – NIH3T3 host cells, beta-gal luminescence, confirmation (AID 2044); type: functional, cell-based;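 further: intracellular parasites grown in NIH/3T3 mouse fibroblasts as host cells; luminescent beta-galactosidase reporter signal from transgenic T. cruzi replicating inside host cells; inhibitors lower the luminescence signal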
[3] = NIH3T3 cell viability loss – ATP luminescence, mouse fibroblasts, counter-screen, dose response (AID 2010); type: functional, cell-based;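 further: cells exposed to compound for about 90 hours before reading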
Cytochrome P450 1A2 = molecular target: T1, Cytochrome P450 1A2 (Homo sapiens, UniProt P05177);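 further: PubChem cytochrome P450 panel assay, CYP1A2 panel member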
T1 sequence (P05177 whole entry): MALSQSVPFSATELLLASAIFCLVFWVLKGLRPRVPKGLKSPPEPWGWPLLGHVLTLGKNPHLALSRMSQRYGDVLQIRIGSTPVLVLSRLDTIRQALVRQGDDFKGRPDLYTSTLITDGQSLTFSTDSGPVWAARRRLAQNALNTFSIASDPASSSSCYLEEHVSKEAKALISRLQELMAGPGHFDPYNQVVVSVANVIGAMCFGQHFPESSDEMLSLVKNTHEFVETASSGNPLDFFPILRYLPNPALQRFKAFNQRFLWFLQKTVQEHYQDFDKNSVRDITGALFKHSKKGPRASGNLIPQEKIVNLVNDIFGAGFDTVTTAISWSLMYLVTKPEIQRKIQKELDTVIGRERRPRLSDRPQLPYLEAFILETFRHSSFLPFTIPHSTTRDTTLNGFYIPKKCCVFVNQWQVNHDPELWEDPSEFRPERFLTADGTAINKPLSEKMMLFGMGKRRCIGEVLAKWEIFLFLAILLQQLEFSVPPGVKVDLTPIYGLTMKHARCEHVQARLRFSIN

Cytochrome P450 2C19 = Cytochrome P450 2C19 (Homo sapiens, UniProt P33261); assay: Cytochrome panel assay with activity outcomes. Panel member name: p450-cyp2c19 Compounds with AC50 equal or less than 10 uM are considered active; type: functional
[4] = molecular target: T2, Corticotropin-releasing factor receptor 2/Corticotropin-releasing factor-binding protein (Homo sapiens, UniProt P24387+Q13324); assay: activators of CRF receptor 2 with binding protein – uHTS hits, confirmation (AID 602473); type: functional; conditions: read-out: EC50_Mean
T2 sequence (Q13324 whole entry): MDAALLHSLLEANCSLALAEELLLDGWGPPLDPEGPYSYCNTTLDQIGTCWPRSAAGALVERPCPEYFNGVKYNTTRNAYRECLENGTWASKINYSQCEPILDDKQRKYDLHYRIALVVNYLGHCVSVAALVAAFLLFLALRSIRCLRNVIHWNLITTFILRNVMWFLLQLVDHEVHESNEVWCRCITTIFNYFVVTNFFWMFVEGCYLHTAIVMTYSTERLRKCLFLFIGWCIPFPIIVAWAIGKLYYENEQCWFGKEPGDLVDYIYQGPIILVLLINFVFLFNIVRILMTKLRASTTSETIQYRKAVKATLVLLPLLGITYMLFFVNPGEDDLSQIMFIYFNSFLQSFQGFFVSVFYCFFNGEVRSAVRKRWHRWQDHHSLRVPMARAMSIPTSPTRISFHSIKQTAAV
T2 sequence (P24387 whole entry): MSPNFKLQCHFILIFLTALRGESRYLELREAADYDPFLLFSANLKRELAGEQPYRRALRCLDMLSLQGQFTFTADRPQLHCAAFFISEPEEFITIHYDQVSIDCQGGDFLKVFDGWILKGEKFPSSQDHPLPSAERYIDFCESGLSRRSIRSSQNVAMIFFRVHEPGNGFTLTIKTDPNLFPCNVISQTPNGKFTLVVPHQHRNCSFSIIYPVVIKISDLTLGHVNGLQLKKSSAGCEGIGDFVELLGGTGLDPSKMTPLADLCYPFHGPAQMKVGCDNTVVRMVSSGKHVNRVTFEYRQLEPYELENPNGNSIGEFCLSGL

[5] = molecular target: T3, Rac GTPase-activating protein 1 (Homo sapiens, UniProt Q9H0H5); assay: blockers of MgcRacGAP-driven Rac1 GTP hydrolysis – biochemical, ADP Hunter fluorescence, primary and confirmatory, confirmation (AID 624330); type: functional
T3 sequence (Q9H0H5 whole entry): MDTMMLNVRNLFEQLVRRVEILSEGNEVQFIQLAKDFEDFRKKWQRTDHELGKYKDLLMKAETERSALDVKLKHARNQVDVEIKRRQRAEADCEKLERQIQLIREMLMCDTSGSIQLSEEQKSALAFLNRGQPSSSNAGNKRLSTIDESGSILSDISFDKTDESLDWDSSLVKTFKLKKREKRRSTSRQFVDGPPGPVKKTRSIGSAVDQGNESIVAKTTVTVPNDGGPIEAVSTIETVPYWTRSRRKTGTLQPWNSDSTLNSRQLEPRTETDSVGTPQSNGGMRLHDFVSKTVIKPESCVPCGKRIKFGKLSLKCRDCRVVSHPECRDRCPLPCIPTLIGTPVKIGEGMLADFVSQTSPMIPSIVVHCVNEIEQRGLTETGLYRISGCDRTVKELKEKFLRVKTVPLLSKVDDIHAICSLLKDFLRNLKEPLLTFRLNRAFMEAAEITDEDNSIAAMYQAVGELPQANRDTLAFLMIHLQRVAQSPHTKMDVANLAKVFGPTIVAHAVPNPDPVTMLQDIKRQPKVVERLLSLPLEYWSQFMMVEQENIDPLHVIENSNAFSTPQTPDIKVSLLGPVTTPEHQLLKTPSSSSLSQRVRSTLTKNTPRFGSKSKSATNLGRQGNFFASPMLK

[6] = tested on: Streptococcus sp. 'group A'; assay: Streptococcus pyogenes SK(-)GAS viability under kanamycin – luminescence, BacTiterGlo, confirmation, counter-screen for streptokinase expression inhibitor project, dose response (AID 1900); type: functional, organism-based
Streptococcus = assay: GAS UMAA2166 growth inhibition – luminescence, BacTiterGlo, counter-screen for streptokinase expression inhibitor project, dose response (AID 1915); type: functional, organism-based;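 further: potency for reduction of bacterial viability or growth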
[7] = Luminescence Cell-Based Dose Response HTS to Identify Activators of Luciferase Translation or Activity in H4 […] Cells. [Related pubchem assays: 1829 (Project Summary), 1814 (Primary HTS)]; type: functional
H4 = assay: Luminescence Cell-Based Dose Response HTS to Identify Activators of 5'UTR Stem-Loop Driven Prion Protein mRNA Translation in H4 Neuroglioblastoma Cells. [Related pubchem assays: 1829 (Project Summary), 1814 (Primary HTS)]; type: functional; conditions: Homo sapiens

Chain of Cytochrome P450 2C19 (P33261 whole entry): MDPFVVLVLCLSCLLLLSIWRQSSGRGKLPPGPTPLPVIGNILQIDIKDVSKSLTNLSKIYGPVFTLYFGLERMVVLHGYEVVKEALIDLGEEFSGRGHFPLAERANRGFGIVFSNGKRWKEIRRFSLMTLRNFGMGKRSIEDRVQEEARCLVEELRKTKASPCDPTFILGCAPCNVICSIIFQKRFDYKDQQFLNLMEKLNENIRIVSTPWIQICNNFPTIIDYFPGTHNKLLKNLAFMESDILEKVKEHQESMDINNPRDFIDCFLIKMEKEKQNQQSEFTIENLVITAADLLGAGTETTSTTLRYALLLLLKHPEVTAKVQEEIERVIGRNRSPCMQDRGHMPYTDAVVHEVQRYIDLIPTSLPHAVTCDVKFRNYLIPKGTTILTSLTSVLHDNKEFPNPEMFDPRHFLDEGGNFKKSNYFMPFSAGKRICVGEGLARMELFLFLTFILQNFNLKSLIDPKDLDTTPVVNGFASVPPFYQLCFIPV

SMILES: Cc1ccc(S(=O)(=O)NCCc2cc3ccc(C)cc3nc2O)cc1
- AC50 [1]: > 70 µM (inactive)

SMILES: CC1CCC2CCCCC2N1C(=O)c1cc([N+](=O)[O-])cc([N+](=O)[O-])c1 (stereo not drawn)
- EC50 [2]: 0.212 µM (active)
- EC50 [3]: > 60 µM (not active)

SMILES: CCN(Cc1ccncc1)C(=O)c1cc(COc2c(C)cccc2C)on1
- EC50 [2]: 1.42 µM (active)
- EC50 [3]: > 60 µM (not active)

SMILES: O=C(Nc1ccccc1)N1CC[C@@]2(CCCN(C(=O)c3ccco3)C2)C1
- AC50 (Cytochrome P450 1A2): 10 µM (inconclusive)

SMILES: CCCCn1cnc2c(SC)ncnc21
- AC50 (Cytochrome P450 1A2): 3.16 µM (inconclusive)

SMILES: C[C@H](CCC(=O)O)[C@H]1CC[C@]2(C)[C@@H]3C(=O)C[C@H]4C(C)(C)[C@@H](O)CC[C@]4(C)[C@H]3C(=O)C[C@@]12C
- AC50 (Cytochrome P450 2C19): inconclusive

SMILES: Cc1ccc(C(=O)Nc2c(C#N)c(C)c(C)n2Cc2ccccc2)cc1
- AC50 (Cytochrome P450 2C19; read-out: AC50): 0.447 µM (inconclusive)

SMILES: CN(C)C(=O)c1ccc(-c2cc(Nc3ccccc3)ncn2)cc1
- AC50 (Cytochrome P450 1A2): 12.6 µM (inconclusive)

SMILES: CCOc1ccccc1N(C)C(=O)c1cc2c(=O)n(CC)c3ccccc3c2s1
- EC50 [2]: 1.43 µM (active)
- EC50 [3]: > 60 µM (not active)

SMILES: CCC(=O)Nc1cccc(-n2nnnc2SCC(=O)N2CCCCC2)c1
- EC50 [4]: 11.7 µM (active)

SMILES: COc1ccc(CN2CCC(N3CC(C)OC(C)C3)CC2)c(OC)c1OC (stereo not drawn)
- IC50 [5]: 66 µM (active)

SMILES: Cc1ccccc1C1c2[nH]c3ccccc3c2C[C@H]2C(=O)N(C3CCN(Cc4ccccc4)CC3)CC(=O)N12 (stereo partly drawn)
- EC50 [2]: 1.98 µM (active)
- EC50 [3]: 13.3 µM (active)

SMILES: Cc1ccc(S(=O)(=O)C(C#N)c2nc3ccccc3nc2N2CCCC2)cc1 (stereo not drawn)
- EC50 [4]: > 53 µM (inactive)

SMILES: O=C1[C@H]2C(c3ccccc3)=NN(c3ccccc3)[C@H]2C(=O)N1c1ccccc1
- EC50 [6]: 0.614 µM (active)
- EC50 (Streptococcus): 3.62 µM (active)

SMILES: COc1ccc(CN2CCN(Cc3ccc(Br)cc3)CC2)c(OC)c1OC
- IC50 [5]: 70.2 µM (active)

SMILES: C1CCC(CNc2c3c(nc4nnnn24)CCCC3)CC1
- EC50 [2]: 1.87 µM (active)
- EC50 [3]: > 60 µM (not active)

SMILES: CCC(=O)Nc1ccc2nc(C3CC3)n(Cc3ccc(C(C)(C)C)cc3)c(=O)c2c1
- EC50 [2]: 0.325 µM (active)
- EC50 [3]: > 60 µM (not active)

SMILES: S=C(NCCN1CCOCC1)Nc1ccc(Nc2ccccc2)cc1
- IC50 [5]: 129 µM (active)

SMILES: CCn1cc(CN2CCCC(C(=O)c3cccc(OC)c3)C2)c(C)n1 (stereo not drawn)
- EC50 [2]: 0.426 µM (active)
- EC50 [3]: > 60 µM (inconclusive)

SMILES: CCC(CC)C(=O)NC1CCSC1=O (stereo not drawn)
- AC50 (Cytochrome P450 2C19): inconclusive
- AC50 (Cytochrome P450 1A2): 39.8 µM (inconclusive)

SMILES: Cc1ccc(Cc2cnc(N3C(=N)SC(c4ccccc4)C3=O)s2)cc1 (stereo not drawn)
- EC50 [6]: 0.181 µM (active)
- EC50 (Streptococcus): 5.16 µM (active)

SMILES: COC(=O)N1N=C(c2ccc(Br)cc2)CC1(O)C(F)(F)F (stereo not drawn)
- EC50 [7]: 2.85 µM (active)
- EC50 (H4): 0.745 µM (active)

SMILES: OCCCCNc1cccc2ccccc12
- IC50 [5]: 22.8 µM (active)

SMILES: CCC(=O)Nc1ccc(Nc2ccccc2)cc1
- IC50 [5]: 53.6 µM (active)

SMILES: O=C(NC1CCN(Cc2ccccc2)CC1)C1CCN(S(=O)(=O)c2ccccc2)CC1
- EC50 [2]: 0.424 µM (active)
- EC50 [3]: > 60 µM (not active)

SMILES: Nc1nc(NCCOCCO)nc(N2CCCCCC2)c1[N+](=O)[O-]
- EC50 [6]: 5.73 µM (active)
- EC50 (Streptococcus): 8.6 µM (active)

SMILES: O=C(NCCCN1CCOCC1)c1ccc(Sc2ccc(F)cc2)c([N+](=O)[O-])c1
- EC50 [2]: 1.01 µM (active)
- EC50 [3]: > 60 µM (inconclusive)

SMILES: CCC1CCCCN1CC(=O)c1c(C)[nH]c2ccccc12 (stereo not drawn)
- EC50 [4]: 22.6 µM (active)

SMILES: Cc1[nH]c2ccccc2c1SCc1nnc(SCc2ccc(Cl)cc2)n1C
- EC50 [2]: 3.54 µM (active)
- EC50 [3]: 12.3 µM (active)

SMILES: COc1cc(CN2CCCC(CO)(Cc3cccc(Cl)c3)C2)cc2c1OCO2 (stereo not drawn)
- EC50 [2]: 0.419 µM (active)
- EC50 [3]: > 60 µM (not active)

SMILES: C[C@@H]1CCc2cc(F)cc3c(=O)c(C(=O)O)cn1c23
- AC50 (Cytochrome P450 1A2): 12.6 µM (inconclusive)

SMILES: Cc1c(NC(=O)c2ccc(-c3ccc([N+](=O)[O-])cc3Cl)o2)c(=O)n(-c2ccccc2)n1C
- EC50 [2]: 0.839 µM (active)
- EC50 [3]: > 60 µM (inconclusive)

SMILES: Cc1cc(C)c2c(N)c(C(=O)c3ccccc3)sc2n1
- EC50 [2]: 0.225 µM (active)
- EC50 [3]: > 60 µM (not active)

SMILES: O=C(Nc1cccc(F)c1)N1CC=C(c2ccc(Cl)cc2)CC1
- EC50 [2]: 1.48 µM (active)
- EC50 [3]: > 60 µM (not active)

SMILES: CC1=NN(c2ccccc2)C(=O)C1C(=O)c1ccc(Cl)cc1 (stereo not drawn)
- AC50 (Cytochrome P450 2C19; read-out: AC50): 39.8 µM (inconclusive)

SMILES: O=C(O)C1C2C=CC3(CN(Cc4ccccn4)C(=O)C13)O2 (stereo not drawn)
- AC50 (Cytochrome P450 2C19): inconclusive

SMILES: CN1CCN(c2ncc3nc(-c4cccs4)c(=O)n(CCc4ccccc4)c3n2)CC1
- AC50 (Cytochrome P450 1A2): 2.51 µM (inconclusive)

SMILES: COC(=O)c1c(-c2ccc3ccccc3c2)csc1NC(=O)Cc1ccc(OC)c(OC)c1
- AC50 (Cytochrome P450 1A2): 11.2 µM (inconclusive)

SMILES: C[C@@]12CC[C@H](O)C[C@@H]1CC[C@@H]1[C@@H]2CC[C@@]2(C)[C@@H](C3=CC(=O)OC3)[C@H](O)C[C@]12O
- AC50 (Cytochrome P450 2C19): inconclusive

SMILES: Nc1ccc(N2CCCC2)c(S(=O)(=O)Nc2cccc(C(F)(F)F)c2)c1
- IC50 [5]: 120 µM (active)

SMILES: CCOC(=O)Nc1ccc(OC(=O)Oc2ccc(NC(=O)OCC)cc2)cc1
- IC50 [5]: 31.8 µM (active)

SMILES: COc1cc(/C=N/Nc2nc3ccccc3s2)ccc1O
- IC50 [5]: 69.6 µM (active)

SMILES: CC(=O)Nc1sc2c(c1C(N)=O)CCCC2
- AC50 (Cytochrome P450 2C19; read-out: AC50): 35.5 µM (inconclusive)

SMILES: COc1ccc(CNc2ccc(N3CCN(C(C)=O)CC3)cc2)cc1OC
- IC50 [5]: 12 µM (active)

SMILES: Cc1ccn2c(S)nnc2c1
- IC50 [5]: 19.4 µM (active)

SMILES: COc1cccc(/C=N/N2CCN(c3ccncc3S(=O)(=O)N3CCCCC3)CC2)c1
- EC50 [2]: 1.71 µM (active)
- EC50 [3]: > 60 µM (not active)

SMILES: CCOc1ccccc1/C=N\Nc1cnn(Cc2ccccc2)c(=O)c1Cl
- EC50 [2]: 3.38 µM (active)
- EC50 [3]: > 60 µM (inconclusive)
